Results published in ChEMBL document CHEMBL3102725, “Trichodermone, a spiro-cytochalasan with a tetracyclic nucleus (7/5/6/5) skeleton from the plant endophytic fungus Trichoderma gamsii” (J Nat Prod, 2014).

System: HeLa
Assay: Cytotoxicity against human HeLa cells by MTT assay
Format: functional, cell-based

Row | Structure (SMILES) | IC50
1 | CC1=C[C@@H]2/C=C(\C)CC[C@H](O)[C@H](O)/C=C/C(=O)[C@]23C(=O)N[C@@H](CC(C)C)[C@@H]3[C@@H]1C [ASPOCHALASIN D] | 5720 nM
2 | CC(=O)O[C@H]1C(=O)[C@@]2(C)[C@H]([C@H](OC(=O)c3ccccc3)[C@]3(O)C[C@H](OC(=O)[C@H](O)[C@@H](NC(=O)c4ccccc4)c4ccccc4)C(C)=C1C3(C)C)[C@]1(OC(C)=O)CO[C@@H]1C[C@@H]2O [PACLITAXEL] | 2.5 nM
